Patent publication US6413967B1, “Inhibition of novel calcium entry pathway in electrically non-excitable cells acting as an anti-proliferative therapy” (The University of Virginia Patents Foundation, priority 1995, dated 2002)

What was measured:
[1] = test system: [Ca^2+]i in Jurkat T cells; assay: receptor-stimulated Ca2+ influx in Jurkat T cells (anti-CD3 mAb OKT3); format: cell-based, human; conditions: effect the same post- and pre- T cell receptor stimulation; 10 or 30 μM drug
Protocol: Initially, all drugs are screened using Jurkat T cells incubated with indo-1/AM as outlined below. In the event that there is an effect of the drug on the maximum [Ca^2+]i reached following treatment of the cells with the anti-CD3 mAb […], the drug is evaluated for any effects on the spectral characteristics of indo-1 as outlined in Haverstick and Gray, Mol. Biol. Cell (1993) 4:173. If there is an effect of the drug on the spectral characteristics of indo-1 , the drug is further examined for spectral effects on the combination of fura-red and fluo-3. If there is no effect of the drug on the fura-red/fluo-3 combination, the drug is examined for effects on the maximum [Ca^2+]i reached following OKT3 treatment of cells incubated with 5 μM fura-red and […] as outlined below.
Jurkat cells are incubated in RPMI-1640 plus 5% fbs in the presence of the acetoxymethyl ester of either indo-1 (1 μM) or the combination of fura-red (5 μM) with fluo-3 (1 μM) for one hour at 37° C. Cells are washed three times in buffer A [[…] 4-(2-hydroxyethyl)-1-piperazine ethanesulfonic acid (HEPES), pH 7.4, 3 MM KCl, 1 mM MgCl2, 1 mM CaCl2, 140 mM NaCl, 0.1% glucose] containing 1% fbs and suspended to a final concentration of 1×10^6/ml. Cells are then placed in the 37° C. jacketed cell holder of the SLM 8000C. Antigen receptor engagement is mimicked by the addition of the anti-CD3 monoclonal antibody OKT3 (Gray et al, J. Exp. Med. (1988) 167:1963; Gray et al, J. Immunol. 142:1631). The effect of drug added prior to receptor stimulation or at the plateau phase of Ca^2+ entry is determined as follows:
Prior drug: 10 or 30 μM drug @ 30 seconds, 1 μg/ml OKT3 at 90 seconds
Post drug: 1 μg/ml OKT3 at 30 second, 10 or 30 μM drug @ 120 seconds

[2] = test system: NVG current in Jurkat cells; assay: perforated patch clamp, non-voltage gated (NVG) current; format: cell-based, human; conditions: membrane potential −60 mV, 300 nM thapsigargin, amiloride 100 μM, MnCl2 300 μM, NiCl2 1 mM, W-7 30 μM, NDGA 10 μM
Protocol: All recordings were performed using the perforated patch method (Horn et al, J. Gen. Physiol. (1988) 92:145) of the gigaseal patch clamp technique (Hammil et al, Pflugers Arch (1981) 391:85) with microelectrodes of 5-10 megohm series resistance. In all solutions for voltage clamp, K^+ was replaced with Cs^+ to block outward K^+ currents (Fox et al, J. Physiol. (Lond.) (1987) 392:149). The bath solution contained (in mM): NaCl, 155; CsCl, 4.5; CaCl2, 2; MgCl2, 1; D-glucose, 5; HEPES, 10 (pH 7.4 with NaOH). The pipette solution contained (in mM): CsCl, 55; Cesium methanesulfonate, 70; CaCl2, 1; MgCl2, 7; HEPES, 10 (pH 7.3 with NaOH). Nystatin was made as a stock solution of 6 mg/100 μl DMSO, and 2 μl of the stock was added to 1 ml of the pipette solution for use. Both pipette and bath solutions were 290-300 mOsm. Experiments were performed on cells at room temperature using the Axopatch-1D patch clamp (Axon Instruments, Foster City, Calif.) after correction of junction potentials and leak subtraction. Records were low-pass filtered at 500 Hz, and the data were collected, stored and analyzed using the pClamp software program (Axon Instruments). For the non-voltage gated current traces, data is presented either as the tracing from a chart recorder or from the digital data in which the current was measured at 5 second intervals and plotted as individual points.

human PBMC = assay: lymphocyte proliferation, 3H-thymidine incorporation; format: cell-based
Protocol: Human PBMC were isolated from peripheral blood obtained from healthy donors. Cells were washed twice and were placed in triplicate wells at a concentration of 1×10^5 cells/ml in serum-free RPMI-1640 supplemented with 100 U of both penicillin and streptomycin. Drug treatments were added 15 minutes before stimulation of the cells and were present throughout the 1 hour stimulation period. Stimulation by mitogen (1 μg/ml PHA) in combination with 10 nM phorbol dibutyrate (PDB) was carried out for 1 hour at 37° C. Cells were subsequently washed 3 times with RPMI and were resuspended at a concentration of 1×10^5 cells/ml in RPMI-1640 supplemented with 5% FBS and 100 U/ml of penicillin and 100 μg/ml streptomycin. For the 48 hour proliferation phase, cells were cultured with (Ca^2+-independent proliferation) or without (Ca^2+-dependent proliferation) 10 nM PDB. 1 μCi of [^3H]-Thymidine (6.7 Ci/mmol; New England Nuclear, Boston, Mass.) was added to each well for the final 16 hours of the assay and at 48 h the cells were harvested and incorporated ^3H was counted by liquid scintillation counting.

[3] = test system: [Ca^2+]i in MDA-468 cells; assay: EGF receptor-stimulated Ca2+ influx in MDA-468 cells; format: cell-based, human; conditions: effect the same post- and pre- EGF receptor stimulation
Protocol: MDA468 cells are incubated with either indo-1 or the combination of fura-red/fluo-3 for 1 hour while still adherent in the maintenance flask in DMEM plus 5% fbs and 1 μg/ml insulin. Cells are removed by gentle scraping and washed three times in buffer A containing 1% charcoal stripped fbs (Nelson et al, Br. J. Cancer (1991) 63:933). The cells are then suspended to a final concentration of 1e6/ml and used as above in the SLM. For the human breast cancer cells, Ca^2+ entry is stimulated by the addition of 25 ng/ml EGF, rather than the antibody used above.

CC(Cc1ccc(O)c(O)c1)C(C)Cc1ccc(O)c(O)c1 (stereo not drawn) [NDGA, 4,4′-(2,3-dimethyl-1,4-butanediyl)bis[1,2-benzenediol]]
T cell [Ca^2+]i [1]: ↓ | effect on the thapsigargin-induced NVG current [2]: no effect | IC50 (human PBMC; Ca^2+-dependent protocol (PHA/PDB 1 h, then medium 48 h), n=6, read-out: IC50 for inhibition of proliferation): ~3 µM | effect on Ca^2+-independent proliferation (human PBMC; PHA/PDB 1 h then PDB 48 h): no effect | effect on Ca^2+-dependent proliferation (human PBMC; PHA/PDB 1 h then medium alone 48 h): inhibited proliferation | MDA [CA^2+]i [3]: ↓
